Among the test systems are A549; CCRF-CEM; DU-145; EKVX; HCC 2998; HL-60; IGROV-1; KM-20L2; LOX IMVI; MDA-N; OVCAR-4; RPMI-8226; SF-268; SF-539; SK-MEL-28; SK-OV-3; SN12C; SW-620; U-251; UO-31.
Holding throughout (experiment): NCI anticancer screen, dose series, 48 h

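Results reflect a 48-hour exposure of cells in 96-well plates to compound at five concentrations. GI50 marks 50% less growth.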 The source made the active and inactive calls. No stated cut-off is given here; in the data, active = GI50 up to about 1.1 µM and inactive = higher.

For the compound `CCCCNCC(=O)O[C@]1(CC)C(=O)OCc2c1cc1n(c2=O)Cc2cc3ccccc3nc2-1`, the GI50 in the assay with A549 is 0.185 µM (active); with CCRF-CEM it was 0.0127 µM (active); with DU-145 it was 0.0482 µM (active); in the assay on EKVX, 2.98 µM (inactive); in the assay on HCC 2998, 1.74 µM (inactive); in the assay with HL-60, 0.084 µM (active). Besides, the GI50 with IGROV-1 was 2.3 µM (inactive); with KM-20L2, 1.24 µM (inactive); in the assay on LOX IMVI it was 0.0721 µM (active); with MDA-N it was 2.11 µM (inactive); in the assay with OVCAR-4, 7.19 µM (inactive); in the assay with RPMI-8226, 0.385 µM (active). The GI50 was 0.0851 µM (active) in the assay on SF-268; 0.0832 µM (active) with SF-539; 2.17 µM (inactive) in the assay with SK-MEL-28; 0.658 µM (active) in the assay with SK-OV-3; 0.0622 µM (active) with SN12C; 0.0836 µM (active) in the assay with SW-620. Also, the GI50 with U-251 is 0.0508 µM (active); with UO-31, 0.207 µM (active).
On to `CCOc1ccc(/C(C=O)=C(\Cl)c2ccc(OC)cc2)cc1`, for which the GI50 is 18.2 µM (inactive) with A549; 5.24 µM (inactive) in the assay on CCRF-CEM; > 100 µM (inactive) in the assay on DU-145; > 52 µM (inactive) with EKVX; 82.6 µM (inactive) with HCC 2998; 14.6 µM (inactive) in the assay on HL-60. In addition, the GI50 was > 100 µM (inactive) in the assay on IGROV-1; > 100 µM (inactive) in the assay on KM-20L2; 14.2 µM (inactive) in the assay on LOX IMVI; 9.82 µM (inactive) with OVCAR-4; 5.73 µM (inactive) in the assay with RPMI-8226; > 100 µM (inactive) in the assay with SF-268. Further, the GI50 was > 100 µM (inactive) with SF-539; > 100 µM (inactive) with SK-MEL-28; > 100 µM (inactive) in the assay with SK-OV-3; > 100 µM (inactive) in the assay on SN12C; > 100 µM (inactive) with SW-620; > 57.7 µM (inactive) in the assay on U-251. The GI50 in the assay with UO-31 was > 57.1 µM (inactive).
Turning to `CC1(C)CC(=O)C(C(=O)Nc2cccs2)=C(O)C1`, the GI50 with A549 was 32.1 µM (inactive); in the assay on CCRF-CEM, 23 µM (inactive); in the assay with EKVX, 42 µM (inactive); in the assay with HCC 2998 it was 48.5 µM (inactive); in the assay on HL-60, 24.1 µM (inactive); in the assay with IGROV-1, 32.9 µM (inactive). Moreover, the GI50 in the assay with KM-20L2 is 38.2 µM (inactive); in the assay with LOX IMVI, 32.3 µM (inactive); in the assay on OVCAR-4, 31.1 µM (inactive); in the assay with RPMI-8226 it was 31 µM (inactive); with SF-268, > 100 µM (inactive); with SF-539, 36.2 µM (inactive). Moreover, the GI50 in the assay on SK-MEL-28 was > 100 µM (inactive); in the assay with SK-OV-3, 62.4 µM (inactive); with SN12C, 39.4 µM (inactive); in the assay with SW-620, 38.8 µM (inactive); with U-251 it was 31.8 µM (inactive); with UO-31 it was 28.8 µM (inactive).
`CC1=C2[C@@H](c3ccccc3)C3C=CC2(c2ccccc23)N(C(=O)Nc2cccc3ccccc23)C1=O` (some centres undefined): the GI50 in the assay with A549, in the assay on CCRF-CEM, in the assay with EKVX, in the assay on HCC 2998, with HL-60 and with IGROV-1 was > 100 µM (inactive) throughout. Also, the GI50 with KM-20L2, with LOX IMVI, with OVCAR-4, with RPMI-8226, with SF-268 and with SF-539 was > 100 µM (inactive) in each case. Besides, the GI50 in the assay with SK-MEL-28, with SK-OV-3, with SN12C, with SW-620, in the assay with U-251 and in the assay with UO-31 was > 100 µM (inactive) in each case.
For the compound `Cn1ccnc1CCc1ccc(Cl)cc1Cl`, the GI50 with A549 is > 100 µM (inactive); with CCRF-CEM, > 100 µM (inactive); in the assay with EKVX, 48.8 µM (inactive); in the assay with HCC 2998 it was > 100 µM (inactive); with HL-60, 68.1 µM (inactive); in the assay with IGROV-1, > 100 µM (inactive). Besides, the GI50 in the assay with KM-20L2, with LOX IMVI, in the assay on OVCAR-4, in the assay with RPMI-8226, with SF-268 and in the assay on SF-539 was > 100 µM (inactive) each time. Besides, the GI50 in the assay with SK-MEL-28 is > 100 µM (inactive); in the assay with SK-OV-3 it was > 100 µM (inactive); with SN12C, > 100 µM (inactive); in the assay with SW-620 it was > 100 µM (inactive); in the assay on U-251 it was > 100 µM (inactive); with UO-31 it was 49.5 µM (inactive).
In the case of `CC(=O)O[C@H]1[C@@H]2[C@@H]3[C@@H](C[C@H]1C)[C@@H](C)CO[C@@]1(C)CC/C=C(/C)C[C@@H]2O[C@@H]31`, the GI50 is > 100 µM (inactive) in the assay with A549; > 100 µM (inactive) in the assay with CCRF-CEM; > 100 µM (inactive) in the assay on EKVX; 56.2 µM (inactive) with HCC 2998; > 100 µM (inactive) in the assay with HL-60; > 100 µM (inactive) in the assay on IGROV-1. The GI50 in the assay on KM-20L2, with LOX IMVI, in the assay with OVCAR-4, in the assay with RPMI-8226, in the assay with SF-268 and in the assay with SF-539 was > 100 µM (inactive) throughout. The GI50 in the assay with SK-MEL-28, with SK-OV-3, with SN12C, in the assay on SW-620, in the assay on U-251 and in the assay on UO-31 was > 100 µM (inactive) in each case.
Turning to `CCOC(=O)Nc1ccc2c(c1)N(C(=O)CCN(CC)CC)c1ccccc1S2` [ETHACIZINE], the GI50 was 34.3 µM (inactive) in the assay on A549; 34.3 µM (inactive) in the assay on CCRF-CEM; 50.1 µM (inactive) with DU-145; > 35.9 µM (inactive) in the assay with EKVX; 17.3 µM (inactive) in the assay with HCC 2998; 18.9 µM (inactive) in the assay on HL-60. The GI50 in the assay on IGROV-1 is 40.5 µM (inactive); with KM-20L2 it was 19.3 µM (inactive); with LOX IMVI it was 17.6 µM (inactive); in the assay with OVCAR-4 it was 43.6 µM (inactive); in the assay with RPMI-8226 it was 17.9 µM (inactive); in the assay on SF-268, 27.8 µM (inactive). Also, the GI50 in the assay with SF-539 is 21.1 µM (inactive); in the assay on SK-MEL-28, 28.5 µM (inactive); in the assay with SK-OV-3, 35 µM (inactive); with SN12C, 28.6 µM (inactive); in the assay on SW-620, 25.4 µM (inactive); in the assay with U-251 it was 26.6 µM (inactive). Also, in the assay on UO-31, the GI50 is 27.5 µM (inactive).
As to `COc1ccc2nc3ccccc3c(NCCCCCCN(C)CCCl)c2c1`, the GI50 in the assay on A549 was 0.297 µM (active); with CCRF-CEM it was 0.0368 µM (active); in the assay on EKVX, 1.39 µM (inactive); in the assay with HCC 2998, 0.705 µM (active); in the assay on HL-60, 0.0312 µM (active); in the assay with IGROV-1, 0.163 µM (active). The GI50 in the assay on KM-20L2 was 0.172 µM (active); in the assay with LOX IMVI, 0.162 µM (active); with OVCAR-4 it was 1.09 µM (active); in the assay with RPMI-8226 it was 0.0728 µM (active); with SF-268 it was 0.133 µM (active); in the assay on SF-539 it was 0.474 µM (active). Moreover, the GI50 in the assay with SK-MEL-28 is 0.986 µM (active); in the assay with SK-OV-3 it was 0.664 µM (active); in the assay on SN12C, 0.0689 µM (active); in the assay on SW-620, 0.0583 µM (active); in the assay with U-251, 0.286 µM (active); in the assay on UO-31, 1.36 µM (inactive).
As for `O=c1[nH]c(=O)n([C@H]2C[C@@H](CO)[C@@H](O)C2)cc1I`, the GI50 with A549, with CCRF-CEM, in the assay with EKVX, with HCC 2998, with HL-60 and in the assay with IGROV-1 was > 100 µM (inactive) each time. The GI50 in the assay with KM-20L2, in the assay with LOX IMVI, in the assay on OVCAR-4, in the assay on RPMI-8226, with SF-268 and in the assay on SF-539 was > 100 µM (inactive) throughout. Moreover, the GI50 in the assay on SK-MEL-28, in the assay on SK-OV-3, in the assay with SN12C, in the assay with SW-620, in the assay on U-251 and with UO-31 was > 100 µM (inactive) in each case.
Consider `CCCCCCCCC[C@@H]1CC(=O)OCC2OC(O[C@H](CCCCCCCCC)CC(=O)OCC3OC(O[C@H](CCCCCCCCC)CC(=O)OCC4OC(O1)C(O)C(O)C4O)C(O)C(O)C3O)C(O)C(O)C2O` (some centres undefined), for which the GI50 in the assay on A549 is 14.7 µM (inactive); in the assay with CCRF-CEM, 5.79 µM (inactive); in the assay on EKVX it was 12 µM (inactive); in the assay with HCC 2998 it was 12 µM (inactive); in the assay with HL-60, 14.3 µM (inactive); in the assay on IGROV-1, 14.5 µM (inactive). Further, the GI50 in the assay on KM-20L2 is 6.46 µM (inactive); in the assay with LOX IMVI it was 3.52 µM (inactive); with OVCAR-4, 18.2 µM (inactive); with RPMI-8226, 14.5 µM (inactive); in the assay on SF-268, 2.94 µM (inactive); in the assay with SF-539, 10.3 µM (inactive). Further, the GI50 in the assay on SK-MEL-28 is 6.62 µM (inactive); with SK-OV-3 it was 13.4 µM (inactive); in the assay on SN12C, 13.7 µM (inactive); with SW-620 it was 5.83 µM (inactive); in the assay on U-251, 8.28 µM (inactive); in the assay with UO-31 it was 9.4 µM (inactive).

The values are drawn from ChEMBL document CHEMBL1201862, “PubChem BioAssay data set” (2004).
